What was measured:
[1] = molecular target: Urease (Canavalia ensiformis) (UniProt P07374); assay: Inhibition of jack bean urease assessed as residual activity at 85 uM
[2] = molecular target: Urease (Canavalia ensiformis) (UniProt P07374); assay: Inhibition of jack bean urease assessed as residual activity at 50 uM
[3] = molecular target: Urease (Canavalia ensiformis) (UniProt P07374); assay: Reactivation of jack bean urease activity in presence of DTT after 40 mins
[4] = molecular target: Urease (Canavalia ensiformis) (UniProt P07374); assay: Inhibition of jack bean urease assessed as residual activity at 30 uM

Urease (Canavalia ensiformis), sequence (P07374 whole entry, looked up): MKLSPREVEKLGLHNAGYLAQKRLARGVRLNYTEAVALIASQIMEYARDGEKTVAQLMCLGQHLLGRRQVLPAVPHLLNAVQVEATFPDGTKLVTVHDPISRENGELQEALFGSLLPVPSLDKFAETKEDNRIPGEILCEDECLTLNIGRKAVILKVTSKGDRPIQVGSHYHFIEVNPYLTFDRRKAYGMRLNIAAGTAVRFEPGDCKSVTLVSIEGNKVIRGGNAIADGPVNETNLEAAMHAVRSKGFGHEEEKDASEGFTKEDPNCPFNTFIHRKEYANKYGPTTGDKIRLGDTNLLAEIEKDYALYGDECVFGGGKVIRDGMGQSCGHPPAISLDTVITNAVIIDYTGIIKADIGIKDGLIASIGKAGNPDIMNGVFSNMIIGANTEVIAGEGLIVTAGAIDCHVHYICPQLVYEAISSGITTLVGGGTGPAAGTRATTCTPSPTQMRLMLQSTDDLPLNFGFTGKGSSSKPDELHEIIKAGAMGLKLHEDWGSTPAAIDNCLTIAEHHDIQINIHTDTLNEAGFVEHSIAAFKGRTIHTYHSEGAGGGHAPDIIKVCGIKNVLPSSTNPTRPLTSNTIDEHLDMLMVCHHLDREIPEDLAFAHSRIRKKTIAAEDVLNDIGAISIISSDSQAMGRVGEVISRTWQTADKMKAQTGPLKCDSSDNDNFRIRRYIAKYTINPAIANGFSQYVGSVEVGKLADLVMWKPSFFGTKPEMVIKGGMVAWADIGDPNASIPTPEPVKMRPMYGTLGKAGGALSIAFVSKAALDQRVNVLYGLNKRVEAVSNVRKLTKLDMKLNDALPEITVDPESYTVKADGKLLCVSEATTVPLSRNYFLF

O=C1C=CC(=O)c2ccccc21
Activity [1]: 7%
Activity [2]: 24%
Activity [3]: 40%
Activity [4]: 40%

— ChEMBL document CHEMBL1147964, “Double mode of inhibition-inducing interactions of 1,4-naphthoquinone with urease: arylation versus oxidation of enzyme thiols” (Bioorg Med Chem, 2007)
